Reference: patent US20230219921A1, “KCNT1 INHIBITORS AND METHODS OF USE” (Praxis Precision Medicines, Inc., priority 2020, published 2023)

Biological target: T1, KCNT1 (KNa1.1, Slack) (Homo sapiens, UniProt Q5JUK3)
T1 construct: expressed in transfected cells; host or cells: HEK-TREX (tetracycline-inducible HEK cell line)
T1 sequence (Q5JUK3 1-1230): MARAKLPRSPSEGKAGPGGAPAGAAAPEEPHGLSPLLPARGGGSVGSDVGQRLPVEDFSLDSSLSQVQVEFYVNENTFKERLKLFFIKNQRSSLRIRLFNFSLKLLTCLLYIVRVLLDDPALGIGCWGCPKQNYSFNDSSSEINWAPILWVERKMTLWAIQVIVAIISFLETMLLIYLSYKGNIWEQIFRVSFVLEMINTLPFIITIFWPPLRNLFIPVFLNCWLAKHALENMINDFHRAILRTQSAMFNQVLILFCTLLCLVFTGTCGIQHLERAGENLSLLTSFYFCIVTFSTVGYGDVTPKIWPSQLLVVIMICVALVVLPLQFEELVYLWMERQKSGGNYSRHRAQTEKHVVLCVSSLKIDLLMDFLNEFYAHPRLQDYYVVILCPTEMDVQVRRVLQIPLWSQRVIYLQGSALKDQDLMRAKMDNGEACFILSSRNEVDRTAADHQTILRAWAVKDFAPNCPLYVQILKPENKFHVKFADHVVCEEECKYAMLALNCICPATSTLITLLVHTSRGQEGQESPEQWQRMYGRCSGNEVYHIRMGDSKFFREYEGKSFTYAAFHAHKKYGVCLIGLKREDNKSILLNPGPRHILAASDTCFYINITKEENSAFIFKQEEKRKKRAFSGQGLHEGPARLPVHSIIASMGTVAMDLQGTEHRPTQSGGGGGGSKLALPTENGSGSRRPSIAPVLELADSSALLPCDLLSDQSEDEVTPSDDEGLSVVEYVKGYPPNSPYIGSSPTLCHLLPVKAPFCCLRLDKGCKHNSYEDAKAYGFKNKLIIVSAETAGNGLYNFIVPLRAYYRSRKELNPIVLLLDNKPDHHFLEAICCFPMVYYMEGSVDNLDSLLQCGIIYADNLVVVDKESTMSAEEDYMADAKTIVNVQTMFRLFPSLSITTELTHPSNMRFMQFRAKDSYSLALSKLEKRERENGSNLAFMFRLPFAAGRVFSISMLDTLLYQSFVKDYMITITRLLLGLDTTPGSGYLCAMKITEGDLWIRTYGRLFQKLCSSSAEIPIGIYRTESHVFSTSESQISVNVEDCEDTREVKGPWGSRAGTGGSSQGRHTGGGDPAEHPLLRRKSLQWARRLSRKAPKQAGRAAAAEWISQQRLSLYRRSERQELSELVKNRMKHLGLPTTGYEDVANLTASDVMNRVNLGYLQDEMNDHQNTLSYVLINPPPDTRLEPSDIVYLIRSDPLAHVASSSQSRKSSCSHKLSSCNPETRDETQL
Experiment: KCNT1 patch clamp assay (SyncroPatch 384PE automated patch clamp)
Assay type: cell-based
Conditions: tetracycline inducible cell line (HEK-TREX); perforated patch mode; step from -80 mV to 0 mV; room temperature; read-out: KCNT1-WT IC50
Protocol: Inhibition of KCNT1 (KNa1.1, Slack) was evaluated using a tetracycline inducible cell line (HEK-TREX). Currents were recorded using the SyncroPatch 384PE automated, patch clamp system. Pulse generation and data collection were performed with PatchController384 V1.3.0 and DataController384 V1.2.1 (Nanion Technologies). The access resistance and apparent membrane capacitance were estimated using built-in protocols. Current were recorded in perforated patch mode (10 μM escin) from a population of cells. The cells were lifted, triturated, and resuspended at 800,000 cells/ml. The cells were allowed to recover in the cell hotel prior to experimentation. Currents were recorded at room temperature. The external solution contained the following (in mM): NaCl 105, NMDG 40, KCl 4, MgCl2 1, CaCl2 5 and HEPES 10 (pH=7.4, Osmolarity ˜300 mOsm). The extracellular solution was used as the wash, reference and compound delivery solution. The internal solution contained the following (in mM): NaCl 70, KF 70, KCl 10, EGTA 5, HEPES 5 and Escin 0.01 (pH=7.2, Osmolarity ˜295 mOsm). Escin is made at a 5 mM stock in water, aliquoted, and stored at −20° C. The compound plate was created at 2× concentrated in the extracellular solution. The compound was diluted to 1:2 when added to the recording well. The amount of DMSO in the extracellular solution was held constant at the level used for the highest tested concentration. A holding potential of −80 mV with a 100 ms step to 0 mV was used. Mean current was measured during the step to 0 mV. […] The average mean current from 3 sweeps was calculated and the % inhibition of each compound was calculated. The % Inhibition as a function of the compound concentration was fit with a Hill equation to derive IC50, slope, min and max parameters. If KCNT1 inhibition was less than 50% at the highest tested concentration or if an IC50 could not be calculated, then a percent inhibition was reported in place of the IC50.
In this table, “A” indicates IC50 of less than or equal to 1 μM; “B” indicates inhibition of between 1 μM to 20 μM; and “C” indicates inhibition of greater than or equal to 20 μM.

| IC50 [µM] | SMILES |
| --- | --- |
| ≤ 1 | CC(C)(C)c1ccc(CNC(=O)c2ccc(S(C)(=O)=O)s2)cc1 [Compound 32, N-(4-(tert-butyl)benzyl)-5-(methylsulfonyl)thiophene-2-carboxamide] |
| ≤ 1 | CS(=O)(=O)c1ccc(C(=O)NCc2ccc(C(F)(F)F)cc2)s1 [Compound 33, 5-(methylsulfonyl)-N-(4-(trifluoromethyl)benzyl)thiophene-2-carboxamide] |
| 1 to 20 | CS(=O)(=O)c1ccc(C(=O)NCc2ccc(OCC(F)(F)F)cc2)s1 [Compound 34, 5-(methylsulfonyl)-N-(4-(2,2,2-trifluoroethoxy)benzyl)thiophene-2-carboxamide] |
| ≤ 1 | CS(=O)(=O)c1ccc(C(=O)NCc2ccc(C3(C(F)(F)F)CC3)cc2)s1 [Compound 37, 5-(methylsulfonyl)-N-(4-(1-(trifluoromethyl)cyclopropyl)benzyl)thiophene-2-carboxamide] |
| 1 to 20 | CC(C)(C#N)c1ccc(CNC(=O)c2ccc(S(C)(=O)=O)s2)cc1 [Compound 39, N-(4-(2-cyanopropan-2-yl)benzyl)-5-(methylsulfonyl)thiophene-2-carboxamide] |
| ≥ 20 | CC(C)Nc1ccc(CNC(=O)c2ccc(S(C)(=O)=O)s2)cc1 [Compound 41, N-(4-(isopropylamino)benzyl)-5-(methylsulfonyl)thiophene-2-carboxamide] |
| 1 to 20 | CS(=O)(=O)c1ccc(C(=O)NCc2ccc(C(F)(F)F)nc2)s1 [Compound 46, 5-(methylsulfonyl)-N-((6-(trifluoromethyl)pyridin-3-yl)methyl)thiophene-2-carboxamide] |
| ≤ 1 | O=C(NCc1ccc(C(F)(F)F)cc1)c1ccc(S(=O)(=O)C2CC2)s1 [Compound 47, 5-(cyclopropylsulfonyl)-N-(4-(trifluoromethyl)benzyl)thiophene-2-carboxamide] |
| ≤ 1 | CCS(=O)(=O)c1ccc(C(=O)NCc2ccc(C(F)(F)F)cc2)s1 [Compound 49, 5-(ethylsulfonyl)-N-(4-(trifluoromethyl)benzyl)thiophene-2-carboxamide] |
| ≤ 1 | CC(C)S(=O)(=O)c1ccc(C(=O)NCc2ccc(C(F)(F)F)cc2)s1 [Compound 50, 5-(isopropylsulfonyl)-N-(4-(trifluoromethyl)benzyl)thiophene-2-carboxamide] |
| ≤ 1 | CS(=O)(=O)c1ccc(C(=O)NCc2ccc(C(F)F)cc2)s1 [Compound 51, N-(4-(difluoromethyl)benzyl)-5-(methylsulfonyl)thiophene-2-carboxamide] |
| ≤ 1 | Cc1cc(C(F)F)ccc1CNC(=O)c1ccc(S(C)(=O)=O)s1 [Compound 53, N-(4-(difluoromethyl)-2-methylbenzyl)-5-(methylsulfonyl)thiophene-2-carboxamide] |

Further lines, the compound ahead of its results:

| SMILES | IC50 [µM] |
| --- | --- |
| CNS(=O)(=O)c1ccc(C(=O)NCc2ccc(OCC(F)(F)F)cc2)s1 [Compound 35, 5-(N-methylsulfamoyl)-N-(4-(2,2,2-trifluoroethoxy)benzyl)thiophene-2-carboxamide] | 1 to 20 |
| CNS(=O)(=O)c1ccc(C(=O)NCc2ccc(C3(C(F)(F)F)CC3)cc2)s1 [Compound 36, 5-(N-methylsulfamoyl)-N-(4-(1-(trifluoromethyl)cyclopropyl)benzyl)thiophene-2-carboxamide] | ≤ 1 |
| CNS(=O)(=O)c1ccc(C(=O)NCc2ccc(C(C)(C)C#N)cc2)s1 [Compound 38, N-(4-(2-cyanopropan-2-yl)benzyl)-5-(N-methylsulfamoyl)thiophene-2-carboxamide] | 1 to 20 |
| CNS(=O)(=O)c1ccc(C(=O)NCc2ccc(NC(C)C)cc2)s1 [Compound 40, N-(4-(isopropylamino)benzyl)-5-(N-methylsulfamoyl)thiophene-2-carboxamide] | ≥ 20 |
| CS(=O)(=O)c1ccc(C(=O)NCc2ccc(C(F)(F)F)cc2F)s1 [Compound 42, N-(2-fluoro-4-(trifluoromethyl)benzyl)-5-(methylsulfonyl)thiophene-2-carboxamide] | ≤ 1 |
| CNS(=O)(=O)c1ccc(C(=O)NCc2ccc(C(F)(F)F)cc2F)s1 [Compound 43, N-(2-fluoro-4-(trifluoromethyl)benzyl)-5-(N-methylsulfamoyl)thiophene-2-carboxamide] | ≤ 1 |
| Cc1cc(C(F)(F)F)ccc1CNC(=O)c1ccc(S(C)(=O)=O)s1 [Compound 44, N-(2-methyl-4-(trifluoromethyl)benzyl)-5-(methylsulfonyl)thiophene-2-carboxamide] | ≤ 1 |
| CNS(=O)(=O)c1ccc(C(=O)NCc2ccc(C(F)(F)F)cc2C)s1 [Compound 45, N-(2-methyl-4-(trifluoromethyl)benzyl)-5-(N-methylsulfamoyl)thiophene-2-carboxamide] | ≤ 1 |
| CS(=O)(=O)c1ccc(C(=O)NCc2ccc(C(F)(F)F)cn2)s1 [Compound 48, 5-(methylsulfonyl)-N-((5-(trifluoromethyl)pyridin-2-yl)methyl)thiophene-2-carboxamide] | 1 to 20 |
| COCCS(=O)(=O)c1ccc(C(=O)NCc2ccc(C(F)(F)F)cc2)s1 [Compound 52, 5-((2-methoxyethyl)sulfonyl)-N-(4-(trifluoromethyl)benzyl)thiophene-2-carboxamide] | ≤ 1 |
| Cc1cc(C(F)(F)F)ncc1CNC(=O)c1ccc(S(C)(=O)=O)s1 [Compound 54, N-((4-methyl-6-(trifluoromethyl)pyridin-3-yl)methyl)-5-(methylsulfonyl)thiophene-2-carboxamide] | 1 to 20 |
